From patent US20050272822A1 (priority 2001, published 2005)
Counter-ions that a name gives are not always drawn.

Key:
adrenergic receptors = details: in vitro; cited from earlier work
muscaranic receptors = details: in vitro; cited from earlier work
histaminergic receptors = details: in vitro; cited from earlier work
monoamine oxidase = details: cited from earlier work
[1] = Water vapor sorption/desorption (dynamic vapor sorption); details: two water sorption/desorption cycles, 25° C.
Procedure: The sample weight changes were monitored as function of the time and relative humidity. Two identical relative humidity-time experiment cycles (0 to 90% relative humidity) were performed to detect any changes in solid-state properties.

[2] = Stability in moist environments and in processes involving water; assay type: physicochemical

Compound: COc1ccc(C(CN(C)C)C2(O)CCCCC2)cc1 (stereo not shown) [venlafaxine, 1-[2-(dimethylamino)-1-(4-methoxyphenyl)ethyl]cyclohexanol]
- affinity for adrenergic receptors (adrenergic receptors): virtually no affinity
- affinity for muscaranic receptors (muscaranic receptors): virtually no affinity
- affinity for histaminergic receptors (histaminergic receptors): virtually no affinity
- inhibitory activity on monoamine oxidase (monoamine oxidase): no inhibitory activity

Compound: COc1ccc(C(CN(C)C)C2(O)CCCCC2)cc1 (stereo not shown) [venlafaxine hydrochloride monohydrate]
- solid-state transition during dehydration/hydration cycling [1]: reversible
- stability in moist environments ([2]; atmospheres having at least 20% relative humidity): stable
- stability in processes involving water compared with known forms ([2]; processes involving water, such as wet granulation): more stable than known forms
